Test: HILIC, Waters ACQUITY UPLC BEH Amide, 100 × 2.1 mm, 1.7 µm; A: water + 0.125% formic acid + 10 mM ammonium formate; B: 5% water + 95% acetonitrile + 0.125% formic acid + 10 mM ammonium formate; gradient (min/%B) 0/100 2/100 7.7/70 9.5/40 10.25/30 12.75/100 17/100
Conditions: stereoisomer not certain

Work on NC(=O)CS(=O)C(c1ccccc1)c1ccccc1 (stereo not drawn) [Modafinil] yielded an LC retention time of 1.27 min.
CCCC(N)C(=O)O (stereo not drawn) [Norvaline] gave an LC retention time of 4.89 min.
With CN(C)CCC=C1c2ccccc2COc2ccccc21 [Doxepin] the LC retention time was 2.26 min.
In the case of COC(=O)CCc1ccc(OCC(O)CNC(C)C)cc1 (stereo not drawn) [Esmolol], the LC retention time is reported as 3.13 min.
CNc1ccccc1C(=O)O [N-Methylanthranilic acid] gave an LC retention time of 1.22 min.
Molecule CC(C)N=c1cc2n(-c3ccc(Cl)cc3)c3ccccc3nc-2cc1Nc1ccc(Cl)cc1 [Clofazimine] has an LC retention time of 1.78 min.
Cn1cc(CC(N)C(=O)O)c2ccccc21 (stereo not drawn) [1-Methyltryptophan] gave an LC retention time of 6.38 min.
With CC(C)CC(N)C(=O)N1CCCC1C(=O)O (stereo not drawn) [Leu-Pro] the LC retention time was 7.32 min.
With CCCCCCCCCCCCCCC(O)C(O)C(N)CO (stereo not drawn) [Phytosphingosine] the LC retention time was 5.18 min.
CCNC(C)Cc1cccc(C(F)(F)F)c1 (stereo not drawn) [Fenfluramine] gave an LC retention time of 2.33 min.
Molecule CC(=O)Nc1ccccc1 [Acetanilide] has an LC retention time of 1.11 min.
c1ccc2scnc2c1 [Benzothiazole] gave an LC retention time of 1.11 min.
With O=C(O)CP(=O)(O)O [Phosphonoacetic acid] the LC retention time was 9.73 min.
Molecule O=C1c2c(O)cc(O)cc2OC(c2ccc(O)c(O)c2)C1O (stereo not drawn) [Taxifolin] has an LC retention time of 1.78 min.
With Cc1ncc([N+](=O)[O-])n1CCO [Metronidazole] the LC retention time was 1.17 min.
In the case of NNCCc1ccccc1 [Phenelzine], the LC retention time is reported as 4.45 min.
COC1C(O)C(CO)OC1n1ccc(N)nc1=O (stereo not drawn) [2'-O-Methylcytidine] showed an LC retention time of 5.02 min.
Work on N#CCc1c[nH]c2ccccc12 [3-Indoleacetonitrile] yielded an LC retention time of 8.02 min.
CCCCCC(O)C=CC=O (stereo not drawn) [4-Hydroxynonenal] showed an LC retention time of 1.07 min.
Work on CCOC(=O)c1ncn2c1CN(C)C(=O)c1cc(F)ccc1-2 [Flumazenil] yielded an LC retention time of 1.08 min.
Work on CCc1c2c(nc3ccc(OC(=O)N4CCC(N5CCCCC5)CC4)cc13)-c1cc3c(c(=O)n1C2)COC(=O)C3(O)CC (stereo not drawn) [Irinotecan] yielded an LC retention time of 5.03 min.
CSCC1OC(n2cnc3c(N)ncnc32)C(O)C1O (stereo not drawn) [5'-Methylthioadenosine] showed an LC retention time of 2.49 min.
For Clc1cccc(Cl)c1NC1=NCCN1 [Clonidine], the LC retention time was 2.85 min.
CC(Cc1ccc(C(C)C(=O)O)cc1)C(=O)O (stereo not drawn) [Carboxyibuprofen] showed an LC retention time of 1.11 min.
In the case of O=C(c1ccc(F)cc1)C1CCN(CCn2c(=S)[nH]c3ccccc3c2=O)CC1 [Altanserin], the LC retention time is reported as 2.64 min.
In the case of CC1OC(OC2C(CO)OC(OC3C(CO)OC(O)C(O)C3O)C(O)C2O)C(O)C(O)C1NC1C=C(CO)C(O)C(O)C1O (stereo not drawn) [Acarbose], the LC retention time is reported as 9.88 min.
In the case of COc1ccc(C2CNC(=O)C2)cc1OC1CCCC1 (stereo not drawn) [Rolipram], the LC retention time is reported as 1.12 min.
CN1C(CC(=O)c2ccccc2)CCCC1CC(O)c1ccccc1 (stereo not drawn) [Lobeline A] showed an LC retention time of 2.02 min.
OC1CCCCC1O (stereo not drawn) [1,2-Cyclohexanediol] showed an LC retention time of 4.88 min.
Work on Oc1ccc2c3c1OC1C(O)CCC4(O)C(C2)N(CC2CCC2)CCC314 (stereo not drawn) [Nalbuphine] yielded an LC retention time of 5.25 min.
Cc1ncc(CO)c(CO)c1O [Pyridoxine] showed an LC retention time of 3.78 min.
CN1CCCC1C(=O)O (stereo not drawn) [N-Methylproline] showed an LC retention time of 7.11 min.
CSc1nc2cc(Oc3cccc(Cl)c3Cl)c(Cl)cc2[nH]1 [Triclabendazole] showed an LC retention time of 1.01 min.
Molecule CNC(C)Cc1ccccc1 (stereo not drawn) [Methamphetamine] has an LC retention time of 3.33 min.
Molecule O=[N+]([O-])c1cccc2cn[nH]c12 [7-Nitroindazole] has an LC retention time of 1.03 min.
Work on CCCC(=O)OCC [Ethylbutanoate] yielded an LC retention time of 4.88 min.
With CCOC(=O)c1ccc(OC(=O)CCCCCN=C(N)N)cc1 [Gabexate] the LC retention time was 3.45 min.
In the case of O=C(c1ccccc1)c1c(O)cc(O)cc1O [Phlorobenzophenone], the LC retention time is reported as 1.34 min.
Molecule Nc1ccn(C2CC(O)C(CO)O2)c(=O)n1 (stereo not drawn) [2'-Deoxycytidine] has an LC retention time of 5.87 min.
In the case of CN1C(=O)CN=C(c2ccccc2F)c2cc([N+](=O)[O-])ccc21 [Flunitrazepam], the LC retention time is reported as 1.05 min.
With O=C(O)Cc1c[nH]c2ccccc12 [3-Indoleacetic acid] the LC retention time was 1.33 min.
Molecule CC(=O)N1CCN(c2ccc(OCC3COC(Cn4ccnc4)(c4ccc(Cl)cc4Cl)O3)cc2)CC1 (stereo not drawn) [Ketoconazole] has an LC retention time of 1.73 min.
O=C(O)C1CCCCN1 (stereo not drawn) [Pipecolic acid] showed an LC retention time of 7.83 min.
CCC(O)CC(=O)O (stereo not drawn) [3-Hydroxyvaleric acid] gave an LC retention time of 1.29 min.
In the case of c1ccc2c(-c3nccs3)c[nH]c2c1 [Camalexin], the LC retention time is reported as 1.05 min.
Work on CNS(=O)(=O)Cc1ccc2[nH]cc(CCN(C)C)c2c1 [Sumatriptan] yielded an LC retention time of 4.31 min.
In the case of CC(NC(CCc1ccccc1)C(=O)O)C(=O)N1CCCC1C(=O)O (stereo not drawn) [Enalaprilat], the LC retention time is reported as 7.07 min.
For CCCCCCCCOC(=O)c1ccccc1C(=O)OCCCCCCCC [Dioctyl Phthalate], the LC retention time was 0.96 min.
Molecule COc1ccc(C=CC(=O)Nc2ccccc2C(=O)O)cc1OC [Tranilast] has an LC retention time of 1.26 min.
For O=C1CN2Cc3c(ccc(Cl)c3Cl)N=C2N1 [Anagrelide], the LC retention time was 1.82 min.
O=C(O)c1cccnc1 [Nicotinic acid] showed an LC retention time of 4.01 min.
For O=c1[nH]c(=O)c2ncn(C3OC(CO)C(O)C3O)c2[nH]1 (stereo not drawn) [Xanthosine], the LC retention time was 7.3 min.
CC(C)C1CCC(C(=O)NC(Cc2ccccc2)C(=O)O)CC1 (stereo not drawn) [Nateglinide] gave an LC retention time of 1.3 min.
For CC(C)Oc1ccc2c(=O)c(-c3ccccc3)coc2c1 [Ipriflavone], the LC retention time was 0.94 min.
Molecule O=c1ccn(C2CCC(CO)O2)c(=O)[nH]1 (stereo not drawn) [2,3-Dideoxyuridine] has an LC retention time of 1.73 min.
With CCCCCCCCCCCCCCCC(=O)OC(CO)CO [2-Palmitoylglycerol] the LC retention time was 0.99 min.
CC=C1C2C=C(C)CC1(N)c1ccc(=O)[nH]c1C2 (stereo not drawn) [Huperzine] gave an LC retention time of 5.74 min.
Oc1ccc2c3c1OC1c4[nH]c5ccccc5c4CC4(O)C(C2)N(CC2CC2)CCC314 (stereo not drawn) [Naltrindole] gave an LC retention time of 4.45 min.
CC(C)CC(NC(=O)OCc1ccccc1)C(=O)O (stereo not drawn) [N-Carbobenzyloxyleucine] showed an LC retention time of 1.28 min.
With CCN(CC)CCN1C(=O)CN=C(c2ccccc2F)c2cc(Cl)ccc21 [Flurazepam] the LC retention time was 2.41 min.
Work on COc1c(N2CC3CCCNC3C2)c(F)cc2c(=O)c(C(=O)O)cn(C3CC3)c12 (stereo not drawn) [Moxifloxacin] yielded an LC retention time of 4.69 min.
For COc1cc(C2c3cc4c(cc3C(OC3OC5COC(C)OC5C(O)C3O)C3COC(=O)C23)OCO4)cc(OC)c1O (stereo not drawn) [Etoposide], the LC retention time was 1.3 min.
Work on O=C1CCCCC1=O [1,2-Cyclohexanedione] yielded an LC retention time of 5.77 min.
In the case of CCCCCCCCCCCC(CC1OC(=O)C1CCCCCC)OC(=O)C(CC(C)C)NC=O (stereo not drawn) [Orlistat], the LC retention time is reported as 0.89 min.
Molecule CN1CCc2cc(Cl)c(O)cc2C(c2ccccc2)C1 (stereo not drawn) [UNII-UGT5535REQ] has an LC retention time of 2.89 min.
With Nc1ncnc2nc[nH]c12 [Adenine] the LC retention time was 4.71 min.
CN(C)c1nc2c(ncn2C2OC(CO)C(O)C2O)c(=O)[nH]1 (stereo not drawn) [N2,N2-Dimethylguanosine] gave an LC retention time of 5.62 min.
Molecule CCC(C(N)=O)N1CCCC1=O (stereo not drawn) [Levetiracetam] has an LC retention time of 1.45 min.
